According to US6387411B2, “Method for producing dispersible sterol and stanol compounds” (McNeil-PPC, Inc., priority 1998, dated 2002):

Experiments:
[1] = Turbidity of ground sterol/docusate sodium matrix shaken in water; format: physicochemical; conditions: shaken 30 seconds in 25 milliliter deionized water; for Turbidity, Series 2: measured after standing 20 minutes; for Turbidity, Series 1: measured after standing one minute
Method: Yet another method to determine whether the desired level of hydrocarbon has been added to the sterol/stanol, is to measure the turbidity of the solution after 100 milligrams of the ground sterol/stanol/hydrocarbon are added to water. The greater turbidity value, the more effectively the solid solution is able to be dispersed in water. […] Preferred turbidity levels are greater than about 1500, preferably greater than 2000 and most preferably greater than 3000 Nephelometric Turbidity Units (NTU). As used herein turbidity is understood to be the same as defined by the United States Pharmacopeia, 15th Edition, the light scattering effect of suspended particles and turbidity as the measure of the decrease in the incident beam intensity per unit length of a given suspension. The range of turbidty values is from 0 to 20,000 NTU. As a point of reference the turbidity of water is zero. The turbidity of the samples is measured at room temperature.
A docusate sodium/β-sitosterol matrix was prepared. The sample was shaken for 30 seconds in a vial containing 25 milliliter deionized water. In Series 1, turbidity measurements were taken after allowing the shaken sample to stand one minute. In Series 2, measurements were made after standing for 20 minutes.

[2] = Wetting and time to disperse of powdered matrix in unstirred water; format: physicochemical; conditions: similar conditions to Example 5 (200 mg in 250 ml water); up to three days vigorous stirring
Source text: Another technique for measuring the crystallinity of the solid matrix is to measure the time in which a ground powdered sample of the solid takes to disperse in unstirred water. When an appropriate amount of the appropriate hydrocarbon material has been added, […], preferably in less than about 45 seconds and most preferably less than about 30 seconds. Agitation, including mild agitation such as a stirring bar, can be employed to enhance the dissolution of the solid solution in water.
Additional sitosterol/docusate sodium matrices were prepared and added to water.

| SMILES | Turbidity, Series 2 [1] [NTU] | Turbidity, Series 1 [1] [NTU] | Wetting in water [2] |
| --- | --- | --- | --- |
| CC[C@H](CC[C@@H](C)[C@H]1CC[C@H]2[C@@H]3CC=C4C[C@@H](O)CC[C@]4(C)[C@H]3CC[C@]12C)C(C)C [100% sterol, β-sitosterol] | 523 | 1301 | does not wet at all |
| CCCCC(CC)COC(=O)CC(C(=O)OCC(CC)CCCC)S(=O)(=O)[O-].[Na+] (centres unmarked) [100% docusate sodium, docusate sodium] | 0.441 | 1.22 | – |
